Data: ChEMBL document CHEMBL5053492, “Discovery of tert-amine-based RORγt agonists” (Eur J Med Chem, 2021)

Tests used:
[1] = target: T1, Nuclear receptor ROR-gamma (Homo sapiens, UniProt P51449); experiment: Agonist activity at APC-labeled RORgammat LBD (unknown origin) incubated for 1 hr in presence of europium labeled co-activator SRC1 by dual FRET assay
T1 sequence (P51449 whole entry): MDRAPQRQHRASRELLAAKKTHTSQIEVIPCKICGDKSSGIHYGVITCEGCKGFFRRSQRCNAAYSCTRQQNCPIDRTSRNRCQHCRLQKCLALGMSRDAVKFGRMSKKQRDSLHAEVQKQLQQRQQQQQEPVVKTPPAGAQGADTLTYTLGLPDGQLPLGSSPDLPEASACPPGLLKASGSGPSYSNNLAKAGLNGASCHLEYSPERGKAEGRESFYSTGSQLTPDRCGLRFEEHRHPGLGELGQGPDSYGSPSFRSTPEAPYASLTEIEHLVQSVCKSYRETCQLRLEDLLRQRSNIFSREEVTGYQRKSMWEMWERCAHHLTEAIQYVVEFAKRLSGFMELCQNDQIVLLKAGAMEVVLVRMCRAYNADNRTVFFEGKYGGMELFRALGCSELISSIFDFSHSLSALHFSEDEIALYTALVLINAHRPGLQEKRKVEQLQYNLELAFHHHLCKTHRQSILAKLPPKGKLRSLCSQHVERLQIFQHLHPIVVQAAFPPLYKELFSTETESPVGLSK

[2] = target: T1, Nuclear receptor ROR-gamma; experiment: Agonist activity at human RORgammat LBD expressed in HEK293T cells assessed as increase in Gal4 reporter gene transcription measured after 16 to 20 hrs by luciferase reporter gene assay; format: cell-based
[3] = target: T2, Nuclear receptor ROR-gamma (Mus musculus) (UniProt P51450); experiment: Agonist activity at RORgammat in mouse CD4+ T cells assessed as induction of Th17 cells differentiation by measuring increase in IL17 production at 250 nM measured after 4 days by intracellular staining based flow cytometry (reference value: 16.5 %); format: cell-based; details: CD4+ve Th, time 4.0 day
T2 sequence (whole entry): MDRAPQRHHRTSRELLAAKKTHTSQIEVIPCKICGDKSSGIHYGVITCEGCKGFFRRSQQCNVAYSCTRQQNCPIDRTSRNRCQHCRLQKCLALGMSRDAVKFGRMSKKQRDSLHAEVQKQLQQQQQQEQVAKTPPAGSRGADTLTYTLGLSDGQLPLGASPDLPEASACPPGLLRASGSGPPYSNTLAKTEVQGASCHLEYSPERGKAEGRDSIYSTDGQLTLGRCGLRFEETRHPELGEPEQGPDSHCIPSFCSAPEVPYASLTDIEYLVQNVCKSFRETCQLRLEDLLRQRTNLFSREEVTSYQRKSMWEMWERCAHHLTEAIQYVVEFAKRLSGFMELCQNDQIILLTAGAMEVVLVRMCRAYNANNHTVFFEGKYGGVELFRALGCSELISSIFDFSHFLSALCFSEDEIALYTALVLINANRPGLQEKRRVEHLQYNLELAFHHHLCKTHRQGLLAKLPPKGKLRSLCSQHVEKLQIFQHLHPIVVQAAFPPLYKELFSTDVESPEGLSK

SMILES | EC50 [1] | further results
CCCN(Cc1ccccc1)Cc1ccc(NC(=O)Cc2ccccc2)cc1 | 2170 nM | –
CCCN(Cc1ccc(NC(=O)Cc2ccc(S(=O)(=O)CC)cc2)cc1)Cc1nccs1 | > 30000 nM | –
CCCN(Cc1ccccc1)Cc1ccc(NC(=O)Cc2ccc(S(C)(=O)=O)cc2)cc1 | 43.1 nM | –
CCCN(Cc1ccccc1)Cc1ccc(NC(=O)Cc2ccc(C(=O)O)cc2)cc1 | > 30000 nM | –
CCCN(Cc1ccc(NC(=O)Cc2ccc(S(C)(=O)=O)cc2)cc1)CC1CCCCC1 | – | EC50 [2]: 277 nM
CCCN(Cc1ccc(NC(=O)Cc2ccc(S(=O)(=O)CC)cc2)cc1)CC1CCC1 | 291 nM | –
CCCN(Cc1ccc(NC(=O)Cc2ccc(S(=O)(=O)CC)cc2)cc1)Cc1cccs1 | 29.1 nM | –
CCCN(Cc1ccc(NC(=O)Cc2ccc(S(=O)(=O)CC)cc2)cc1)CC1CCCC1 | 109 nM | –
CCCN(Cc1ccc(NC(=O)Cc2ccc(S(=O)(=O)CC)cc2)cc1)CC1CCOCC1 | 86.2 nM | –
CCCN(Cc1ccccc1)Cc1ccc(NC(=O)Cc2ccc(C#N)cc2)cc1 | 346 nM | –
CCCN(Cc1ccc(NC(=O)Cc2ccc(S(=O)(=O)CC)cc2)cc1)Cc1cccnc1 | 40.2 nM | –
CCCN(Cc1ccc(NC(=O)Cc2ccc(S(=O)(=O)CC)cc2)cc1)CC1CCC(F)(F)CC1 | 79.6 nM | –
CCCN(Cc1ccc(NC(=O)Cc2ccc(S(=O)(=O)CC)cc2)cc1)CC1CCCO1 (stereo unspecified) | 285 nM | –
CCCN(Cc1c(Cl)cc(NC(=O)Cc2ccc(S(C)(=O)=O)cc2)cc1Cl)CC1CCCCC1 | – | EC50 [2]: 382 nM
CCS(=O)(=O)c1ccc(CC(=O)Nc2ccc(CNCc3ccccc3)cc2)cc1 | > 30000 nM | –
CCS(=O)(=O)c1ccc(CC(=O)Nc2ccc(CN(C)Cc3ccccc3)cc2)cc1 | 101 nM | –
CCCN(Cc1ccccc1)Cc1ccc(NC(=O)NCc2ccc(S(=O)(=O)CC)cc2)cc1 | 58 nM | –
CCCN(Cc1ccccc1)Cc1ccc(NCCc2ccc(S(=O)(=O)CC)cc2)cc1 | 33.6 nM | –
CCS(=O)(=O)c1ccc(CC(=O)Nc2ccc(NCCc3ccccc3)cc2)cc1 | 55.2 nM | –
CCCN(Cc1ccc(NC(=O)Cc2ccc(S(=O)(=O)CC)cc2)cc1)Cc1ccccc1Cl | 16.9 nM | –
CCCN(Cc1ccccc1)Cc1ccc(NC(=O)Cc2ccc(S(=O)(=O)CC)cn2)cc1 | 7100 nM | –
CCCN(Cc1ccc(NC(=O)Cc2ccc(S(=O)(=O)CC)cc2)cc1)CC1CC1 | 6530 nM | –
CCN(Cc1ccccc1)Cc1ccc(NC(=O)Cc2ccc(S(=O)(=O)CC)cc2)cc1 | 36.3 nM | –
CCCN(Cc1ccc(NC(=O)Cc2ccc(S(C)(=O)=O)cc2)cc1Cl)CC1CCCCC1 | – | EC50 [2]: 283 nM; Activity [3]: 21.9%

Further lines, with some results ahead:

EC50 [1] | SMILES | further results
11.6 nM | CCCN(Cc1ccc(NC(=O)Cc2ccc(S(=O)(=O)CC)cc2)cc1)Cc1ccccc1C | –
16.8 nM | CCCN(Cc1ccc(Cl)cc1)Cc1ccc(NC(=O)Cc2ccc(S(=O)(=O)CC)cc2)cc1 | –
7.1 nM | CCS(=O)(=O)c1ccc(CC(=O)Nc2ccc(CN(Cc3ccccc3)CC3CCC3)cc2)cc1 | –
11.6 nM | CCCN(CCc1ccccc1)c1ccc(NC(=O)Cc2ccc(S(=O)(=O)CC)cc2)cc1 | –
8.7 nM | CCCN(Cc1ccccc1)Cc1ccc(NC(=O)Cc2ccc(S(=O)(=O)CC)cc2)cc1Cl | –
9.2 nM | CCCN(Cc1ccccc1)Cc1ccc(C(=O)NCc2ccc(S(=O)(=O)CC)cc2)cc1 | –
8 nM | CCS(=O)(=O)c1ccc(CC(=O)Nc2ccc(CN(Cc3ccccc3)CC3CC3)c(Cl)c2)cc1 | –
14 nM | CCS(=O)(=O)c1ccc(CC(=O)Nc2ccc(CN(Cc3ccccc3)CC3CC3)cc2)cc1 | –
9.4 nM | CCCN(Cc1ccc(NC(=O)Cc2ccc(S(=O)(=O)CC)cc2)cc1)Cc1ccccc1F | –
11.1 nM | CCCCN(Cc1ccccc1)Cc1ccc(NC(=O)Cc2ccc(S(=O)(=O)CC)cc2)cc1 | –
8.2 nM | CCCN(Cc1ccccc1)Cc1c(Cl)cc(NC(=O)Cc2ccc(S(=O)(=O)CC)cc2)cc1Cl | –
